PMC6857474, “Differential Effects of the Mitochondria-Active Tetrapeptide SS-31 (D-Arg-dimethylTyr-Lys-Phe-NH2) and Its Peptidase-Targeted Prodrugs in Experimental Acute Kidney Injury” (Frontiers in Pharmacology, 2019)

Legend:
[1] = biological target: T1, aminopeptidase A (APA) (Mus musculus, UniProt P16406); assay: Histoenzymography of APA activity on frozen kidney sections of ADR-treated mice; format: biochemical; conditions: kidney sections of ADR-exposed mice, α-Glu-βNA substrate, 37°C
T1 construct: from tissue; host or cells: frozen kidney sections of ADR-treated BALB/c male mice
T1 sequence (P16406 1-945): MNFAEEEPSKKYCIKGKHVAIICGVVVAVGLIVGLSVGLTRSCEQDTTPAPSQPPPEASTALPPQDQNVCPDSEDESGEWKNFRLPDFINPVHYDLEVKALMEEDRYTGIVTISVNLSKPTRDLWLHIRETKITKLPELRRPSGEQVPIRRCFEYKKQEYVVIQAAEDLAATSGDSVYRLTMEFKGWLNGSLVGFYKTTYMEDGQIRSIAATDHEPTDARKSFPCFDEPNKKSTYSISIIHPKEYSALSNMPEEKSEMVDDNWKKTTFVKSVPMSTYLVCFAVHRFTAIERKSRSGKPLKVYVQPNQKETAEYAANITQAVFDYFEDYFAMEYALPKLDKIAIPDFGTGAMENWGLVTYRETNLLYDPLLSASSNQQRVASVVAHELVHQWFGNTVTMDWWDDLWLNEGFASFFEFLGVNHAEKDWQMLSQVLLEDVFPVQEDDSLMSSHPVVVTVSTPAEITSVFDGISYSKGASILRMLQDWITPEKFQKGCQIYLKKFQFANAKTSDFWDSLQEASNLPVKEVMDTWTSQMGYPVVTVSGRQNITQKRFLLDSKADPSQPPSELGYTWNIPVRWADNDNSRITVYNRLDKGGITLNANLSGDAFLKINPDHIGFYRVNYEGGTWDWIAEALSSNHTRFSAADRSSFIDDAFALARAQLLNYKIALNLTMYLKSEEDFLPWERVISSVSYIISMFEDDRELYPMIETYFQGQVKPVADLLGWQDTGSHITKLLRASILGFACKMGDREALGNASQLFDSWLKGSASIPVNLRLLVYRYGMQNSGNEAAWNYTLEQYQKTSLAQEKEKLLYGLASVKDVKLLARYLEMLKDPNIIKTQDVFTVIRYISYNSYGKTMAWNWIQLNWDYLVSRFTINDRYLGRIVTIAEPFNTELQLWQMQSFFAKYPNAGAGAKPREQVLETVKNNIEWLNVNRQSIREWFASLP
Description: (§1) Enzymatic activities were evaluated by histoenzymography on OCT-embedded frozen kidneys sections (7 µm), as previously described ([Juillerat-Jeanneret et al., 1992]; [Juillerat-Jeanneret et al., 2000]; [Juillerat-Jeanneret et al., 2003]). Briefly, slides were fixed for 5 min in cold (−20°C) acetone, air dried at room temperature, rehydrated for 5 min in 0.9% NaCl, and exposed to the α-Glu-4-methoxy-β-naphtylamide (APA; Bachem) or γ-Glu-4-methoxy-β-naphtylamide (γ-GT; Serva) substrates and Fast Blue B (Sigma-Aldrich) at 37°C for 15 to 60 min until a red coloration was visible. The slides were washed in distilled water, counterstained with hematoxylin (Mayer) for 1 min, rinsed under tap water and then with Scott solution for 1 min, and mounted in Aquamount (Immu-mount; Thermo Shandon, Pittsburgh, PA, USA) and analyzed with a Nikon Eclipse E800 microscope and digital DXM1200 camera using ACT-1 software.
(§2) Sequential sections (7 µm) of frozen OCT-embedded kidneys of adriamycin (ADR)-treated mice were exposed at 37°C to β-methoxynaphthylamide (β-NA) specific substrates of aminopeptidase A (α-Glu-βNA, upper panels) or γ-glutamyltranspeptidase (γ-Glu-βNA, lower panels) and Fast Blue B, in the absence (none) or the presence of SS-31, α-Glu-SS-31 or γ-Glu-SS-31. The sections were then counterstained with light hematoxylin reagent. The enzymatic activity is visualized as a red precipitate. […]

[2] = biological target: T2, γ-glutamyltranspeptidase (γ-GT) (Mus musculus, UniProt Q60928); assay: Histoenzymography of γ-GT activity on frozen kidney sections of ADR-treated mice; format: biochemical; conditions: kidney sections of ADR-exposed mice, γ-Glu-βNA substrate, 37°C
T2 construct: from tissue; host or cells: frozen kidney sections of ADR-treated BALB/c male mice
T2 sequence (Q60928 whole entry): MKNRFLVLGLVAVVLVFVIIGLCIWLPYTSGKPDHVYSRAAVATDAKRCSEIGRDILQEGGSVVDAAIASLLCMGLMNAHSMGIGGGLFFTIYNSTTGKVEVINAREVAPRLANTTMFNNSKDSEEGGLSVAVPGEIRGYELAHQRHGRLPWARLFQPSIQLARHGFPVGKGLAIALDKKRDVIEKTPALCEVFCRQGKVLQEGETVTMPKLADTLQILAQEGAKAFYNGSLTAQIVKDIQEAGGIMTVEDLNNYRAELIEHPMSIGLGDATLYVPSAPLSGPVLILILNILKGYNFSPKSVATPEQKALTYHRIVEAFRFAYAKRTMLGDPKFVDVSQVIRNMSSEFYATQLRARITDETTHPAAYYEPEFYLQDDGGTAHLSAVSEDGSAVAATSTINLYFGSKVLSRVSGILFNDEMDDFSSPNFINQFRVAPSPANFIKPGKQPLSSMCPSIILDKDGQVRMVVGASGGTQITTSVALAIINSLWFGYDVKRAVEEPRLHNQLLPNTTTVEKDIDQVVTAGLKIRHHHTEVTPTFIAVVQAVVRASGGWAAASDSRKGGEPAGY
Description: as §1, §2

[3] = system: BALB/c male mice; assay: Aristolochic acid (AA)-induced acute tubulo-interstitial kidney injury model; format: in vivo, mouse; conditions: AA 1 x 5 mg/kg i.p. alone; control group 44 ± 5
Description: (§3) All experiments were conducted in accordance with federal and local regulations, according to a protocol approved by the animal ethics committee of the Canton de Vaud, Switzerland (No. 2655.0). Kidney injury was induced by intraperitoneal (i.p.) injection of AA (Sigma-Aldrich, 1 × 5 mg/kg) or ADR (Adriblastin, Pfizer, 1 × 10 mg/kg) in 10-week-old BALB/c male mice (n = 5–7 mice/experimental group). SS-31 analogs were diluted in 0.9% NaCl and administered i.p. once a day, starting 1 day before the disease-inducing drugs (day −1) at a dose of 3 mg/kg and then daily until day 6. The animals were weighted at days 0, 3, and 6, and sacrificed at day 7. The level of protein in urine was semi-quantitatively assessed using Albustix reagent strips (Bayer, Basel, Switzerland). At the end of the treatment period, the mice were sacrificed to remove both kidneys. The kidneys were spliced in four equal fragments containing the cortex and medulla. One fragment was immediately snap-frozen in liquid nitrogen for real-time quantitative polymerase chain reaction (qRT-PCR) and Western blot experiments, one fragment was included in OCT (Tissue-Tek, VWR International, Dietikon, Switzerland) and frozen for histoenzymography, one fragment was frozen at −80°C and used for pharmacokinetic (PK) measurements, and one fragment was fixed in 4% paraformaldehyde and included in paraffin for histology. […]

[4] = biological target: T3, γ-glutamyltranspeptidase (γ-GT) (Rattus norvegicus, UniProt P07314); assay: γ-GT enzymatic activity in intact living EC219 cells (γ-Glu-AMC substrate); format: cell-based; conditions: 40 µM γ-Glu-AMC
T3 construct: These cells express high levels of APA and γ-GT activities and can be used to measure kinetics in living cells; endogenous in cells; host or cells: EC219 rat brain-derived endothelial cells
T3 sequence (P07314 whole entry): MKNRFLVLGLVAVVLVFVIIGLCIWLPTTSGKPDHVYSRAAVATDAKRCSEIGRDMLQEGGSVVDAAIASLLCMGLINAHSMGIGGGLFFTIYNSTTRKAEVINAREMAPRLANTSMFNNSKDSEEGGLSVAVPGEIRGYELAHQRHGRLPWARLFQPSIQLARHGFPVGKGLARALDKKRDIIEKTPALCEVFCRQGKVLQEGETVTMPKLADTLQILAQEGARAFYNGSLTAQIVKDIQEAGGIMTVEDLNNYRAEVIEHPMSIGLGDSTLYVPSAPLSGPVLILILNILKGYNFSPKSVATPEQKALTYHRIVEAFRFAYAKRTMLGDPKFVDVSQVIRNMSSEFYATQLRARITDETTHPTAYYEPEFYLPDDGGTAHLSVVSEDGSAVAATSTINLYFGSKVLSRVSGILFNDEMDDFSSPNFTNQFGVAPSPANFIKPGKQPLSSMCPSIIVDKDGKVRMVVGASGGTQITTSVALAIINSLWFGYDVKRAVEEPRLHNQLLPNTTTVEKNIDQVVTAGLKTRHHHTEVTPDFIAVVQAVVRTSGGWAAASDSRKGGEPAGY
Description: The preparation and characterization of rat brain-derived EC219 endothelial cells were previously described ([Juillerat-Jeanneret et al., 1992]). These cells express high levels of APA and γ-GT activities and can be used to measure kinetics in living cells as APA and γ-GT-positive representative cell models. The cells were grown in Dulbecco’s modified Eagle medium (DMEM) containing 1 g/L glucose, 10% heat-inactivated fetal calf serum (FCS), and antibiotics on uncoated cell culture plastic plates and flasks. […]
Stock solutions of α-Glu-AMC (APA) and γ-Glu-AMC and Gly-Gly (γ-GT) substrates, all from Bachem, were prepared at 10 mM in DMSO. […] The increase in absorbance was measured at 37°C in a thermostated fluorescence multiwell-plate reader (CytoFluor Series 4000; PerSeptive Biosystems, MA, USA) at λex = 360 nm/λem = 460 nm using the linear portion of the curves. The kinetics values were then graphically determined or according to Wu and colleagues ([Wu et al., 2011]).
(A) Intact living EC219 cells were exposed to increasing concentrations of either amastatin (left panel) or acivicin (right panel), two well-characterized enzymatic activity inhibitors of APA or γ-GT, respectively. The activities of the enzymes aminopeptidase A (APA) or γ-glutamyltranspeptidase (γ-GT) were determined using 40 µM of the substrates (S), α-Glu-AMC or γ-Glu-AMC, respectively. […] Data were analyzed graphically. […]

[5] = system: BALB/c male mice; assay: Adriamycin (ADR)-induced glomerular damage model; format: in vivo, mouse; conditions: ADR 1 x 10 mg/kg i.p. alone, at the time of sacrifice
Description: as §3

In the case of “H-γ-Glu-D-Arg-DMT-Lys-Phe-NH 2 .2TFA [γ-Glu-SS-31]”, the “enzymatic activity of APA (histoenzymography)” value [1] is reported as “not” and the “enzymatic activity of γ-GT (histoenzymography)” value [2] is reported as “modified neither”.

`COc1cccc2c1cc([N+](=O)[O-])c1c(C(=O)O)cc3c(c12)OCO3` [AA, aristolochic acid] was tested, and the mean creatinine [3] was 258 ± 92 µmol/L.

With `N[C@H](C(=O)O)[C@@H]1CC(Cl)=NO1` [acivicin] the IC50 [4] was 48 µM.

`COc1cccc2c1C(=O)c1c(O)c3c(c(O)c1C2=O)C[C@@](O)(C(=O)CO)C[C@@H]3O[C@H]1C[C@H](N)[C@H](O)[C@H](C)O1` [ADR, adriamycin] was tested, and the mean creatinine [5] was 33 ± 5 µmol/L.
